Results on 12 molecules are retold here after publication PMC8200971, “Design, Synthesis, Biological Evaluation and Silico Prediction of Novel Sinomenine Derivatives” (Molecules, 2021).

Where two headings read alike, the source gives them in different places.

For data set [1], the system named is A549 (human lung adenocarcinoma cell lines). The data set is described as follows: CCK8 cytotoxicity assay. The following applies: for IC50: read-out: IC50 A549; for inhibition at 2.5 µM / inhibition at 25 µM: read-out: growth inhibition ratio (mean ± SD). The format is cell-based. As for the experimental part: (§1) Cytotoxicity screens were performed to assess the in vitro anticancer activity of the synthesized sinomenine derivatives 6a–6l on the various cancer cell lines MCF-7, Hela, SW480, and A549, as well as on Hek293 as a normal cell line, at doses of 2.5 and 25 μM. The obtained inhibition ratios data were used to construct a heat map (Figure 3, Tables S1 and S2) in order to select compounds that exert cancer cell line-specific cytotoxicity. Then, the IC50 values of the promising compound were determined. Cisplatin was used as a reference standard. The antiproliferative activity was based on the evaluation of the percent viability using the CCK8 assay, which is a rapid and sensitive method for determining the number of viable cells in culture. In the presence of electronic coupling reagents, WST-8 can be reduced by a dehydrogenase in the mitochondria to produce a highly water-soluble orange-yellow formazan product. Its color is proportional to the proliferation of the number of viable cells and is related to cytotoxicity. Using a microplate reader to measure the OD value can indirectly reflect the number of living cells at 450 nm wavelength.
(§2) To understand structure–function relationships, these selected compounds were subjected to subsequent analyses. All six compounds (6a and 6c–6g) were further examined to determine their IC50 concentrations on the previously mentioned cell lines, and their efficacy was compared to the reference drug cisplatin. For this, six compounds and cisplatin were evaluated on Hela, MCF-7, SW480, and A549, and on noncancerous Hek293 cell lines at various concentrations for 60 h. IC50 values were calculated (Table 2).
(§3) The MCF-7 (human breast cancer cell lines), Hela (human cervical cancer cell lines), SW480 (human colon adenocarcinoma cell lines), A549 (human lung adenocarcinoma cell lines) and nontoxic normal cells Hek293 (human embryonic kidney cell lines) cells were used to measure the cytotoxicity of the 6a–6l. They were obtained from the Beijing Normal University (Beijing, China). The test cell lines were cultured in DMEM, IMDM, F12 and DMEM nutrient medium containing 10% heat-inactivated fetal bovine serum, […] and 100 units/mL penicillin in a humified, 5% (v/v) CO2 atmosphere at 37 °C.
(§4) Cell viability was estimated using the CCK8 assay. Tumor cells ([…]) viz. MCF-7, Hela, SW480, A549 and nontoxic normal cells Hek293 were seeded in medium containing Corning® 96-well tissue culture plates at confluences of […], respectively, in Incucyte ZOOM. Fresh medium (100 μL) containing different concentrations of the test sample was added after 12 h of seeding. The microtiter plates were incubated at 37 °C in a humidified incubator with 5% CO2 for 60 h. Triplicates from each concentration were used. Negative control cells were incubated without sample and cisplatin as a positive control. At the end of treatment, the numbers of viable cells were determined by the CCK8 test. In brief, the media was removed from the 96 well plates and replaced with 100 μL of fresh culture medium with 10% CCK8 solution added to each well including the untreated controls. The 96 well plates were then incubated at 37 °C and 5% CO2 for 1–4 h. Then, the absorbance was measured at 450 nm using a BMG LABTECH®-POLAR star Omega microplate reader (Ortenberg, Germany) to determine the number of viable cells, and the percentage of viability was calculated as ((ODt- ODb/ODc- ODb)) × 100%, where ODt is the mean optical density of wells treated with the tested sample, ODc is the mean optical density of wells treated with DMSO and ODb is the mean optical density of PBS wells without cells. The relation between surviving cells and drug concentrations were plotted to get the survival curve of each tumor cell line after treatment with the specified compound. […]
(In general: Tetrazolium assays rely on reduction of a dye to a coloured formazan, in cell work by metabolically active cells.)

The subject of data set [2] is Hela (human cervical cancer cell lines). The data set is described as follows: CCK8 cytotoxicity assay. In kind it is cell-based. The following applies: for IC50: read-out: IC50 Hela; for inhibition at 2.5 µM / inhibition at 25 µM: read-out: growth inhibition ratio (mean ± SD). Here is the method: as §1, §2, §3, §4
For data set [3], the system named is MCF-7 (human breast cancer cell lines). The data set is described as follows: CCK8 cytotoxicity assay. The format is cell-based. Particulars: for IC50: read-out: IC50 MCF-7; for inhibition at 2.5 µM / inhibition at 25 µM: read-out: growth inhibition ratio (mean ± SD). As for the experimental part: as §1, §2, §3, §4
Data set [4] concerns SW480 (human colon adenocarcinoma cell lines). The data set is described as follows: CCK8 cytotoxicity assay. The format is cell-based. The following applies: for IC50: read-out: IC50 SW480; for inhibition at 2.5 µM / inhibition at 25 µM: read-out: growth inhibition ratio (mean ± SD). As for the experimental part:
as §1, §2, §3, §4

Data set [5] relates to Hek293 (human embryonic kidney cell lines). The data set is described as follows: CCK8 cytotoxicity assay, normal cells. The following applies: for IC50: read-out: IC50 Hek293; for inhibition at 2.5 µM / inhibition at 25 µM: read-out: growth inhibition ratio (mean ± SD). In kind it is cell-based. Here is the method: as §1, §2, §3, §4
The mark [6] stands for this setting: CCK8, 60 h, mean ± SD of three independent experiments.

As to `COC1=C[C@@H]2[C@@H]3Cc4c(CN5CCCCC5)cc(OC)c(OC(=O)Cc5ccc(Cl)cc5)c4[C@]2(CCN3C)CC1=O` [5a, (4bR,8aS,9S)-3,7-dimethoxy-11-methyl-6-oxo-1-(piperidin-1-ylmethyl)-6,8a,9,10-tetrahydro-5H-9,4b-(epiminoethano)phenanthren-4-yl 2-(4-chlorophenyl)acetate], the melting point is 105 to 107 °C.
In turn, `COC1=C[C@@H]2[C@@H]3Cc4c(CN5CCCCC5)cc(OC)c(OC(=O)Cc5ccccc5)c4[C@]2(CCN3C)CC1=O` [5b, (4bR,8aS,9S)-3,7-dimethoxy-11-methyl-6-oxo-1-(piperidin-1-ylmethyl)-6,8a,9,10-tetrahydro-5H-9,4b-(epiminoethano)phenanthren-4-yl 2-phenylacetate] gave a melting point of 192 to 194 °C.
`COC1=C[C@@H]2[C@@H]3Cc4c(CN5CCCCC5)cc(OC)c(OC(=O)Cc5ccc(OC)c(OC)c5)c4[C@]2(CCN3C)CC1=O` [5c, (4bR,8aS,9S)-3,7-dimethoxy-11-methyl-6-oxo-1-(piperidin-1-ylmethyl)-6,8a,9,10-tetrahydro-5H-9,4b-(epiminoethano)phenanthren-4-yl 2-(3,4-dimethoxyphenyl)acetate] came in with a melting point of 151 to 154 °C.
For the molecule `COC1=C[C@@H]2[C@@H]3Cc4c(CN5CCCCC5)cc(OC)c(OC(=O)Cc5ccccc5C)c4[C@]2(CCN3C)CC1=O` [5d, (4bR,8aS,9S)-3,7-dimethoxy-11-methyl-6-oxo-1-(piperidin-1-ylmethyl)-6,8a,9,10-tetrahydro-5H-9,4b-(epiminoethano)phenanthren-4-yl 2-(o-tolyl)acetate], the melting point was 177 to 178 °C.
In the case of `COC1=C[C@@H]2[C@@H]3Cc4c(CN5CCCCC5)cc(OC)c(OC(=O)CCc5ccccc5)c4[C@]2(CCN3C)CC1=O` [5e, (4bR,8aS,9S)-3,7-dimethoxy-11-methyl-6-oxo-1-(piperidin-1-ylmethyl)-6,8a,9,10-tetrahydro-5H-9,4b-(epiminoethano)phenanthren-4-yl 3-phenylpropanoate], the melting point lay within 181 to 185 °C.
The same measure, in the same setting: then `COC1=C[C@@H]2[C@@H]3Cc4c(CN5CCCCC5)cc(OC)c(OC(=O)Cc5ccccc5Cl)c4[C@]2(CCN3C)CC1=O` [5f, (4bR,8aS,9S)-3,7-dimethoxy-11-methyl-6-oxo-1-(piperidin-1-ylmethyl)-6,8a,9,10-tetrahydro-5H-9,4b-(epiminoethano)phenanthren-4-yl 2-(2-chlorophenyl)acetate], with 188 to 190 °C; and `COC1=C[C@@H]2[C@@H]3Cc4c(CN5CCCCC5)cc(OC)c(OC(=O)Cc5ccc(OC)cc5)c4[C@]2(CCN3C)CC1=O` [5h, (4bR,8aS,9S)-3,7-dimethoxy-11-methyl-6-oxo-1-(piperidin-1-ylmethyl)-6,8a,9,10-tetrahydro-5H-9,4b-(epiminoethano)phenanthren-4-yl 2-(4-methoxyphenyl)acetate], with 121 to 122 °C; and `COC1=C[C@@H]2[C@@H]3Cc4c(CN5CCCCC5)cc(OC)c(OC(=O)Cc5ccc(F)cc5)c4[C@]2(CCN3C)CC1=O` [5k, (4bR,8aS,9S)-3,7-dimethoxy-11-methyl-6-oxo-1-(piperidin-1-ylmethyl)-6,8a,9,10-tetrahydro-5H-9,4b-(epiminoethano)phenanthren-4-yl 2-(4-fluorophenyl)acetate], with 128 to 130 °C.
Take `COC1=C[C@@H]2[C@@H]3Cc4c(CN5CCCC5)cc(OC)c(OC(=O)Cc5ccc(Cl)cc5)c4[C@]2(CCN3C)CC1=O` [6a, (4bR,8aS,9S)-3,7-dimethoxy-11-methyl-6-oxo-1-(pyrrolidin-1-ylmethyl)-6,8a,9,10-tetrahydro-5H-9,4b-(epiminoethano)phenanthren-4-yl 2-(4-chlorophenyl)acetate]: the melting point was 162 to 165 °C. Besides, in data set [1] (Homo sapiens, A549, 60 h), the IC50 is above 25 µM, the inhibition at 2.5 µM amounted to 3.41 ± 0.82% and the inhibition at 25 µM is 37.4 ± 0.39%. In data set [2] (Homo sapiens, HeLa, 60 h), the IC50 was determined as 11.5 ± 1.04 µM, the inhibition at 2.5 µM was 7.81 ± 5.42% and the inhibition at 25 µM was determined as 88.49 ± 0.67%. Further, in data set [3] (Homo sapiens, MCF7, 60 h), the IC50 came to 14.3 ± 0.83 µM, the inhibition at 2.5 µM came to 0% and the inhibition at 25 µM came out at 85.3 ± 1.62%. Further, in data set [4] (Homo sapiens, SW480, 60 h), the IC50 was 14.94 ± 0.06 µM, the inhibition at 2.5 µM was determined as 12.9 ± 6.52% and the inhibition at 25 µM is 82.3 ± 4.36%. Also, in data set [5] (Homo sapiens, HEK293, 60 h), the IC50 was found to be 13 ± 0.62 µM, the inhibition at 2.5 µM is 17.9 ± 1.86% and the inhibition at 25 µM stood at 61.1 ± 4.71%.
The molecule `COC1=C[C@@H]2[C@@H]3Cc4c(CN5CCCC5)cc(OC)c(OC(=O)Cc5ccc(OC)c(OC)c5)c4[C@]2(CCN3C)CC1=O` [6b, (4bR,8aS,9S)-3,7-dimethoxy-11-methyl-6-oxo-1-(pyrrolidin-1-ylmethyl)-6,8a,9,10-tetrahydro-5H-9,4b-(epiminoethano)phenanthren-4-yl 2-(3,4-dimethoxyphenyl)acetate] had a melting point of 80 to 83 °C. Further, in data set [1] (Homo sapiens, A549, 60 h), the inhibition at 2.5 µM came out at 0% and the inhibition at 25 µM came to 30.9 ± 0.32%. In data set [2] (Homo sapiens, HeLa, 60 h), the inhibition at 2.5 µM was found to be 2.03 ± 2.29% and the inhibition at 25 µM came to 11.5 ± 4.88%. In data set [3] (Homo sapiens, MCF7, 60 h), the inhibition at 2.5 µM came to 3.63 ± 3.16% and the inhibition at 25 µM was determined as 2.7 ± 4.67%. In data set [4] (Homo sapiens, SW480, 60 h), the inhibition at 2.5 µM is 22.9 ± 6.49% and the inhibition at 25 µM amounted to 29.5 ± 11.2%. Also, in data set [5] (Homo sapiens, HEK293, 60 h), the inhibition at 2.5 µM was 0.66 ± 1.14% and the inhibition at 25 µM is 45.9 ± 1.35%.
The molecule `COC1=C[C@@H]2[C@@H]3Cc4c(CN5CCCC5)cc(OC)c(OC(=O)Cc5ccccc5Cl)c4[C@]2(CCN3C)CC1=O` [6c, (4bR,8aS,9S)-3,7-dimethoxy-11-methyl-6-oxo-1-(pyrrolidin-1-ylmethyl)-6,8a,9,10-tetrahydro-5H-9,4b-(epiminoethano)phenanthren-4-yl 2-(2-chlorophenyl)acetate] had a melting point of 79 to 83 °C. Also, in data set [1] (Homo sapiens, A549, 60 h), the IC50 stood at 18.7 ± 0.7 µM, the inhibition at 2.5 µM turned out to be 16.3 ± 0.63% and the inhibition at 25 µM is 49.4 ± 0.59%. Besides, in data set [2] (Homo sapiens, HeLa, 60 h), the IC50 was above 25 µM, the inhibition at 2.5 µM worked out at 3.05 ± 3.91% and the inhibition at 25 µM turned out to be 53.5 ± 2.45%. Besides, in data set [3] (Homo sapiens, MCF7, 60 h), the IC50 is above 25 µM, the inhibition at 2.5 µM was found to be 0% and the inhibition at 25 µM turned out to be 42 ± 3.02%. Further, in data set [4] (Homo sapiens, SW480, 60 h), the half-maximal inhibitory concentration (IC50) was above 25 µM, the inhibition at 2.5 µM came to 28.3 ± 6.91% and the inhibition at 25 µM is 58.4 ± 7.58%. In addition, in data set [5] (Homo sapiens, HEK293, 60 h), the IC50 came out at 6.52 ± 0.19 µM, the inhibition at 2.5 µM is 13.8 ± 2.27% and the inhibition at 25 µM is 54.6 ± 2.29%.
Consider `N.N.[Cl][Pt][Cl]` [Cisplatin, reference compound], for which the concentration for half-maximal inhibition (IC50) in data set [1] (setting [6]) was 14.3 ± 0.7 µM; in data set [2] (setting [6]) it was 4.57 ± 0.43 µM; in data set [3] (setting [6]), 3.45 ± 0.82 µM; in data set [4] (setting [6]), 1.98 ± 0.15 µM; in data set [5] (normal cell line, CCK8, 60 h, mean ± SD of three independent experiments), 3.19 ± 0.6 µM.

Usually melting point stands for the temperature, or range, at which the solid turns liquid. The term IC50 denotes the point on the concentration scale where inhibition reaches its midpoint.
